Tests used:
[1] = oral administration during alcohol drinking (Tabakoff et al. 1989); cited from earlier work
[2] = large doses (1-5 g/kg) taken together with the alcohol (Crownover et al. 1986); cited from earlier work
[3] = Effect of D-glyceric acid on blood alcohol level in rats after intraperitoneal alcohol; type: in vivo, rat; settings: on average, both fasted and nonfasted rats; versus same alcohol dose without D-GLAC
Description: 40 animals were fasted for 12 hours before the experiment, and 40 were fed normally. In the experiment, each rat received intraperitoneally an intoxicating single dose of alcohol (1.2 g/kg, 10% w/v) in physiological saline. […] The blood samples were then analysed by headspace gas chromatography.

[4] = system: ALDH; experiment: Formation of acetic acid from AcA by ALDH/NADH in the presence of D-GLAC (Reaction 6), gas chromatography; type: biochemical; settings: 3 mmol D-GLAC, 0.3 mmol AcA, 5 units ALDH, NADH, phosphate buffer pH 6.865, stirred 6 hours; GC analysis
[5] = system: mouse; settings: cited from earlier work

## CSCC[C@H](N)C(=O)O [methionine]
[1]
  Reduction in blood AcA concentrations: 20%

## O=C(CO)[C@@H](O)[C@H](O)[C@H](O)CO [fructose]
[2]
  Enhancement of alcohol elimination rate: up to 20%

## O=C(O)C(O)CO [D-GLAC, D-glyceric acid]
[3]
  Lower blood alcohol concentration than the corresponding control group: 20%
[4]
  Formation of acetic acid from AcA: acetic acid had been formed

## CCO [alcohol, ethyl alcohol]
[5]; in vivo
  LD70: 6500 mg/kg

## CC=O [AcA, acetaldehyde]
[5]; acute toxicity
  LD100: 750 mg/kg

Reference: US7666909B2, “Enhancement of alcohol metabolism” (priority 2005, dated 2010)
